From article PMC7010297, “How the initiating ribosome copes with ppGpp to translate mRNAs” (PLoS Biology, 2020)
Values joined by “and” are separate entries in the source; they are usually repeats but may differ in a detail not shown here. Equal values may be shown once. Read-outs that look alike come from different tables or passages of the source.

Key:
30S IC = 30S IC (Escherichia coli, UniProt P0A705); experiment: ppGpp tolerance of 30S IC formation by MST; assay type: binding; set-up: 6xHis (N); made in house
Procedure: Fig 7 SETIs and ppGpp tolerance. (A) Translation initiation efficiency as a function of mRNAs along five steps of transition from NS to S conditions. […] Symbols and error bars represent averages of three replicates and standard deviations, respectively (S1 Data). (C) Comparison of ppGpp tolerance as calculated from the ratio of translation initiation efficiencies found in the presence of 0.2 mM ppGpp over the efficiencies obtained in the absence of the alarmone (S1 Data). […] All 30S IC components are as in Fig 1. Dashed line indicates the average tolerance of all mRNAs lacking the SETI element.

[1] = system: mRNA translation (protein synthesis); experiment: In vitro translation in pure cell-free system (PURExpress, Lumio labelling); assay type: biochemical
Procedure: Fig 5 Permissive ppGpp-mediated inhibition of mRNA translation. (A) Scheme of the translating 70S complex. (B) In vitro translation of mTufA and mInfA derivatives harboring a coding sequence for the Lumio labelling system (Experimental conditions and analysis). […] Synthetized proteins were fluorescently labelled and resolved by 20% SDS-PAGE. The resulting images were analyzed by pixel densitometry using ImageJ [37] to estimate translation efficiencies (TEs). […] (D) Comparison of inhibitory constants for both mRNAs as measured during 30S IC formation (white) or overall translation efficiency (gray). Mean and standard deviations from three measurements are plotted (S1 Data). GTP, guanosine triphosphate; mInfA, InfA mRNA; mTufA, TufA mRNA; TE, translation efficiency.
In order to visualize overall protein synthesis, we used a coupled transcription-translation cell-free system. Reactions were carried out in 10 μL of the purified components from the PURExpress In Vitro Protein Synthesis Kit (E6800S/L, NEB, Ipswich, Massachusetts) with the corresponding templates. These reactions were incubated at 37°C for 2 hours. […] After incubation, sample processing and fluorescent labelling were carried out as described by the Lumio Green Detection Kit (LC6090, ThermoScientific, Waltham, Massachusetts) for in vitro reactions. Finally, 20 μL of labelled samples were loaded into 20% SDS-PAGE gels and visualized under a Blue-light LED transilluminator with orange filter (Cleaver Scientific LTD, Warwickshire, UK). Gel quantification was performed by pixel densitometry analysis using ImageJ software.

Sequence of 30S IC (P0A705 whole entry, looked up): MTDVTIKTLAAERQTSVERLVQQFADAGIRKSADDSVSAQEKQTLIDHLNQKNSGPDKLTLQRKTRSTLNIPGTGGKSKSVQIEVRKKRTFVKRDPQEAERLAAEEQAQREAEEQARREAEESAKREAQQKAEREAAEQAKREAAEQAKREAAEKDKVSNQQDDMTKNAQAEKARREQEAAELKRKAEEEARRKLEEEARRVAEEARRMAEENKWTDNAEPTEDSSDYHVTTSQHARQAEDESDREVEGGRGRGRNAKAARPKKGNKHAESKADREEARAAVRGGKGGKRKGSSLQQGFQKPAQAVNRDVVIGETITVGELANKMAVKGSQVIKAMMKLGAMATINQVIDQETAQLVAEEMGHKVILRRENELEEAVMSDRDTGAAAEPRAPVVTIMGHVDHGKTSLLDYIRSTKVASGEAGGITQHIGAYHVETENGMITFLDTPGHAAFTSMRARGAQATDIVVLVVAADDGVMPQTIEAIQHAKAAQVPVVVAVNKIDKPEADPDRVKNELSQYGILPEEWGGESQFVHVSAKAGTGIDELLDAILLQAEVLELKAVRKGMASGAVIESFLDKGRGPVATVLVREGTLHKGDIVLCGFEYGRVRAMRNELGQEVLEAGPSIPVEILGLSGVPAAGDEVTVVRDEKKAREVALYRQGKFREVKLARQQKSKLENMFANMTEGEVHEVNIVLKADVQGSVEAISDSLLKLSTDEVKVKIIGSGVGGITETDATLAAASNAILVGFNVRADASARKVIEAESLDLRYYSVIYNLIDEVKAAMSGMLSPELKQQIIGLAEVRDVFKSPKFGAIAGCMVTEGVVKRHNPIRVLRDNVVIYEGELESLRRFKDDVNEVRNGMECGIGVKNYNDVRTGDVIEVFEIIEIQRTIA

With `Nc1nc2c(ncn2[C@@H]2O[C@H](COP(=O)(O)OP(=O)(O)O)[C@@H](OP(=O)(O)OP(=O)(O)O)[C@H]2O)c(=O)[nH]1` [ppGpp] as the molecule, how does the Ki (30S IC; mRNA mInfA, read-out: 30S IC Ki (μM), replicates) read?
The Ki was 0.598 µM and 0.576 µM and 0.587 µM.

What about the Ki (30S IC; mRNA mInfA, read-out: 30S IC Ki Average) of the same molecule?
The Ki was 0.587 µM.

And the Ki (30S IC; mRNA mTufA, read-out: 30S IC Ki (μM), replicates)?
Its Ki is 2.19 µM and 2.21 µM and 2.22 µM.

What about the Ki (30S IC; mRNA mTufA, read-out: 30S IC Ki Average) of the same molecule?
The Ki was 2.21 µM.

What about the “P.D. Average” value ([1]; mInfA, Log [ppGpp] 1.00) of the same molecule?
The value was 2.85 a.u.x10^4.

And the “P.D. Replicates (a.u.x10^4)” value ([1]; mInfA, Log [ppGpp] 1.00)?
The value was 2.78 a.u.x10^4 and 2.92 a.u.x10^4 and 2.86 a.u.x10^4.

What about the “P.D. Average” value ([1]; mInfA, Log [ppGpp] 2.40) of the same molecule?
Its value is 2.28 a.u.x10^4.

What about the “P.D. Replicates (a.u.x10^4)” value ([1]; mInfA, Log [ppGpp] 2.40) of the same molecule?
Its value is 2.16 a.u.x10^4 and 2.34 a.u.x10^4 and 2.33 a.u.x10^4.

What about the “P.D. Average” value ([1]; mInfA, Log [ppGpp] 2.70) of the same molecule?
Its value is 1.67 a.u.x10^4.

And the “P.D. Replicates (a.u.x10^4)” value ([1]; mInfA, Log [ppGpp] 2.70)?
The value was 1.54 a.u.x10^4 and 1.80 a.u.x10^4 and 1.68 a.u.x10^4.

And the “P.D. Average” value ([1]; mInfA, Log [ppGpp] 3.00)?
The value was 0.00 a.u.x10^4.

And the “P.D. Replicates (a.u.x10^4)” value ([1]; mInfA, Log [ppGpp] 3.00)?
Its value is 0.00 a.u.x10^4.

What about the “P.D. Average” value ([1]; mInfA, Log [ppGpp] 3.30) of the same molecule?
The value was 0.00 a.u.x10^4.

And the “P.D. Replicates (a.u.x10^4)” value ([1]; mInfA, Log [ppGpp] 3.30)?
The value was 0.00 a.u.x10^4.

What about the “P.D. Average” value ([1]; mInfA, Log [ppGpp] 3.60) of the same molecule?
Its value is 0.00 a.u.x10^4.

What about the “P.D. Replicates (a.u.x10^4)” value ([1]; mInfA, Log [ppGpp] 3.60) of the same molecule?
The value was 0.00 a.u.x10^4.

What about the Ki ([1]; mRNA mInfA, read-out: Translation Efficiency Ki (μM), replicates) of the same molecule?
Its Ki is 0.816 µM and 0.72 µM and 0.838 µM.

What about the Ki ([1]; mRNA mInfA, read-out: Translation Efficiency Ki Average) of the same molecule?
Its Ki is 0.791 µM.

And the Ki ([1]; mRNA mTufA, read-out: Translation Efficiency Ki (μM), replicates)?
Its Ki is 2.23 µM and 2.32 µM and 2.09 µM.

And the Ki ([1]; mRNA mTufA, read-out: Translation Efficiency Ki Average)?
The Ki was 2.21 µM.

What about the “P.D. Average” value ([1]; mTufA, Log [ppGpp] 1.00) of the same molecule?
The value was 6.41 a.u.x10^4.

What about the “P.D. Replicates (a.u.x10^4)” value ([1]; mTufA, Log [ppGpp] 1.00) of the same molecule?
Its value is 6.33 a.u.x10^4 and 6.50 a.u.x10^4 and 6.41 a.u.x10^4.

What about the “P.D. Average” value ([1]; mTufA, Log [ppGpp] 2.40) of the same molecule?
The value was 5.17 a.u.x10^4.

And the “P.D. Replicates (a.u.x10^4)” value ([1]; mTufA, Log [ppGpp] 2.40)?
The value was 5.12 a.u.x10^4 and 5.25 a.u.x10^4 and 5.15 a.u.x10^4.

And the “P.D. Average” value ([1]; mTufA, Log [ppGpp] 2.70)?
Its value is 4.76 a.u.x10^4.

What about the “P.D. Replicates (a.u.x10^4)” value ([1]; mTufA, Log [ppGpp] 2.70) of the same molecule?
Its value is 4.72 a.u.x10^4 and 4.86 a.u.x10^4 and 4.70 a.u.x10^4.

What about the “P.D. Average” value ([1]; mTufA, Log [ppGpp] 3.00) of the same molecule?
Its value is 3.38 a.u.x10^4.

And the “P.D. Replicates (a.u.x10^4)” value ([1]; mTufA, Log [ppGpp] 3.00)?
The value was 3.31 a.u.x10^4 and 3.47 a.u.x10^4 and 3.35 a.u.x10^4.

And the “P.D. Average” value ([1]; mTufA, Log [ppGpp] 3.30)?
The value was 2.72 a.u.x10^4.

What about the “P.D. Replicates (a.u.x10^4)” value ([1]; mTufA, Log [ppGpp] 3.30) of the same molecule?
The value was 2.68 a.u.x10^4 and 2.81 a.u.x10^4 and 2.66 a.u.x10^4.

And the “P.D. Average” value ([1]; mTufA, Log [ppGpp] 3.60)?
Its value is 1.21 a.u.x10^4.

And the “P.D. Replicates (a.u.x10^4)” value ([1]; mTufA, Log [ppGpp] 3.60)?
The value was 1.18 a.u.x10^4 and 1.24 a.u.x10^4 and 1.21 a.u.x10^4.

B1: mTufA: TufA mRNA with full-length 5′ UTR, in vitro transcribed, codes for EF-Tu (nucleic acid)
chain: GGUUCUAUCGCCUUUAAAGAAGGCUUUAAGAAAGCGAAACCAGUUCUGCUUGAGCCGAUCAUGAAGGUUGAAGUAGAAACUCCGGAAGAGAACACCGGUGACGUUAUCGGUGACUUGAGCCGUCGUCGUGGUAUGCUCAAAGGUCAGGAAUCUGAAGUUACUGGCGUUAAGAUCCACGCUGAAGUACCGCUGUCUGAAAUGUUCGGAUACGCAACUCAGCUGCGUUCUCUGACCAAAGGUCGUGCAUCAUACACUAUGGAAUUCCUGAAGUAUGAUGAAGCGCCGAGUAACGUUGCUCAGGCCGUAAUUGAAGCCCGUGGUAAAUAAGCCUAAGGGUUAAUACCAAAGUCCCGUGCUCUCUCCUGAAGGGGAGAGCACUAUAGUAAGGAAUAUAGCCGUGUCUAAAGAAAAAUUUGAACG
For B1, which ppGpp tolerance (30S IC; 30S ICs with 4-fold excess of ppGpp (0.2 mM) over GTP vs without alarmone) is on record?
The ppGpp tolerance was “up to 25%”.

What about the “Translation Avg” value ([1]; 2 mM ppGpp, Fig 6G) of the same molecule?
The value was 0.27 a.u.

What about the “Translation Avg” value ([1]; No ppGpp, Fig 6G) of the same molecule?
Its value is 0.83 a.u.

And the “Translation Replicate” value ([1]; No ppGpp, Fig 6G)?
The value was 0.83 a.u.

What about the “translation higher than mInfA” value ([1]; in the absence of ppGpp) of the same molecule?
Its value is 3 fold.
